Results: ChEMBL document CHEMBL3393020, “Biofilm inhibition of linezolid-like Schiff bases: synthesis, biological activity, molecular docking and in silico ADME prediction” (Bioorg Med Chem Lett, 2015)
Values after ≈ are worked out from the molar mass of the structure shown. Active and inactive are the calls of the source. No cut-off for these calls is given here.

Key:
[1] = system: Bacillus subtilis; assay: Antibacterial activity against Bacillus subtilis NCIM-2063 incubated for 24 hrs by two fold serial dilution method; format: functional; settings: NCIM-2063, 24 h
[2] = system: Pseudomonas aeruginosa; assay: Inhibition of biofilm formation of Pseudomonas aeruginosa PAO1 incubated for 15 mins by field emission scanning electron microscopy; format: functional, organism-based
[3] = system: Escherichia coli; assay: Antibacterial activity against Escherichia coli NCIM-2256 incubated for 24 hrs by two fold serial dilution method; format: functional; settings: NCIM-2256, 24 h
[4] = system: Pseudomonas aeruginosa; assay: Antibacterial activity against Pseudomonas aeruginosa NCIM-2036 incubated for 24 hrs by two fold serial dilution method; format: functional; settings: NCIM-2036, 24 h
[5] = system: Pseudomonas aeruginosa; assay: Inhibition of biofilm formation of Pseudomonas aeruginosa PAO1 incubated for 18 hrs by crystal violet staining based spectroscopy; format: functional, organism-based; settings: PAO1, 18 h
[6] = system: Pseudomonas aeruginosa; assay: Effect on planktonic cells growth of Pseudomonas aeruginosa PAO1 incubated for 15 mins by field emission scanning electron microscopy; format: organism-based; settings: 0.25 h
[7] = Retardation factor of the compound; format: physicochemical

Row | Structure (SMILES) | MIC [1] [µg/mL] | inhibition [2] | MIC [3] [µg/mL] | MIC [4] [µg/mL] | IC50 [5] [µM] | Activity [6] | Rf [7]
1 | Cc1cccc2cc(/C=N/c3ccc(N4CCOCC4)c(F)c3)c(Cl)nc12 | 10 (≈ 26.1 µM) | Active | 10 (≈ 26.1 µM) | 3.5 (≈ 9.12 µM) | 15.6 | Non-toxic | 0.44
2 | O=C(O)c1cn(C2CC2)c2cc(N3CCNCC3)c(F)cc2c1=O [CIPROFLOXACIN] | – | – | 25 (≈ 75.4 µM) | – | – | – | –
3 | Fc1ccc(/C=N/c2ccc(N3CCOCC3)c(F)c2)cc1 | 20 (≈ 66.2 µM) | – | 30 (≈ 99.2 µM) | 20 (≈ 66.2 µM) | 31.1 | – | 0.52
4 | CC(=O)NC[C@H]1CN(c2ccc(N3CCOCC3)c(F)c2)C(=O)O1 [LINEZOLID] | 3 (≈ 8.89 µM) | – | 2 (≈ 5.93 µM) | 2.5 (≈ 7.41 µM) | 15.9 | – | –
5 | COc1ccc(/C=N/c2ccc(N3CCOCC3)c(F)c2)cc1OC | 20 (≈ 58.1 µM) | – | 20 (≈ 58.1 µM) | 20 (≈ 58.1 µM) | 27.9 | – | 0.55
6 | Oc1ccc(/C=N/c2ccc(N3CCOCC3)c(F)c2)cc1O | 25 (≈ 79 µM) | – | 30 (≈ 94.8 µM) | 20 (≈ 63.2 µM) | 31.6 | – | 0.59
7 | Fc1cc(/N=C/c2ccccc2)ccc1N1CCOCC1 | 30 (≈ 106 µM) | – | 35 (≈ 123 µM) | 20 (≈ 70.3 µM) | 39.4 | – | 0.64
8 | Fc1cc(/N=C/c2c(Cl)cccc2Cl)ccc1N1CCOCC1 | 20 (≈ 56.6 µM) | – | 25 (≈ 70.8 µM) | 30 (≈ 84.9 µM) | 27.5 | – | 0.48
9 | Fc1cc(/N=C/c2cc3ccccc3nc2Cl)ccc1N1CCOCC1 | 5 (≈ 13.5 µM) | Active | 10 (≈ 27 µM) | 2.5 (≈ 6.76 µM) | 13 | Non-toxic | 0.46
10 | Fc1cc(/N=C/c2c[nH]c3ccccc23)ccc1N1CCOCC1 | 35 (≈ 108 µM) | – | 40 (≈ 124 µM) | 25 (≈ 77.3 µM) | 29.1 | – | 0.52
11 | Fc1cc(/N=C/c2ccoc2)ccc1N1CCOCC1 | 40 (≈ 146 µM) | – | 35 (≈ 128 µM) | 30 (≈ 109 µM) | 35.9 | – | 0.61
